Read-outs that look alike come from different tables or passages of the source.
Key:
Rho-Kinase II (ROKα) = molecular target: T1, Rho-Kinase II (ROKα) (Rattus norvegicus, UniProt Q62868); test: Inhibition of recombinant Rho-kinase II (ROKα), 33P-phosphate incorporation into S6 substrate peptide; assay type: biochemical; conditions: recombinant Rho-Kinase II (Upstate Biotechnology), S6 Phosphate-Acceptor-Peptide, 33P-ATP, 20 min at 37°C
T1 construct: purchased Upstate Biotechnology
From the text: (§1) In einem in vitro-Assay mit rekombinanter Rho-Kinase-II wird die Hemmung des Enzyms untersucht. Die gefäßrelaxierende Wirkung wird an Phenylephrin-induzierten Kontraktionen isolierter Ringe der Kaninchen-Arteria-Saphena bestimmt. Die Eignung der erfindungsgemäßen Verbindungen zur Behandlung von kardiovaskulären Erkrankungen kann durch Untersuchung der blutdrucksenkenden Wirkung an narkotisierten Ratten gezeigt werden.
Die Aktivität der Rho-Kinase wird durch den Einbau von ^33P-Phosphat in ein Substratpeptid bestimmt. Dazu wird kommerziell erhältliche Rho-Kinase II (Upstate Biotechnology) in Gegenwart des S6 Phosphate-Acceptor-Peptides mit den Testsubstanzen oder einer Lösungsmittelkontrolle 10 min bei 37°C vorinkubiert. Anschliessend wird die Kinase-Reaktion durch Zugabe von ^33P-markiertem ATP gestartet. Nach 20 min bei 37°C wird die Reaktion durch Zugabe von H3PO4 gestoppt. Aliquots werden auf Filter pipettiert, die Filter gewaschen und anschließend mit Scintillator beschichtet. Die Radioaktivität der am Filter gebundenen ^33P-markierten Peptide wird in einem Micro-Beta-Counter gemessen. Der IC50-Wert entspricht der Konzentration einer Testsubstanz bei welcher der Rho-Kinase katalysierte Einbau von ^33P in das Peptid im Vergleich zu einer Lösungsmittelkontrolle um 50 % gehemmt ist. Die experimentellen Daten sind in der folgenden Tabelle zusammengestellt.

[1] = test system: Kaninchen-Arteria-Saphena; test: Vasorelaxant effect in vitro: phenylephrine-induced contractions of isolated rabbit saphenous artery rings
From the text: as §1
3 mm breite Ringe der isolierten Kaninchen-Arteria-Saphena werden einzeln in 5 ml-Organbäder mit 37°C warmer, carbogenbegaster Krebs-Henseleit-Lösung gebracht. Der Gefäßtonus wird isometrisch erfasst und registriert. Kontraktionen werden durch Zugabe von 3x10^-8 g/ml Phenylephrin induziert und nach 4 min wieder ausgewaschen. Nach mehreren Kontrollzyklen wird die zu untersuchende Substanz mit jedem weiteren Durchgang in steigender Dosierung vorinkubiert und die darauffolgende Kontraktion mit der Höhe der letzten Kontrollkontraktion verglichen. Es wird die Konzentration errechnet, die erforderlich ist, um die Höhe des Kontrollwertes um 50 % zu reduzieren (IC50). Die experimentellen Daten sind in der folgenden Tabelle zusammengestellt.

[2] = isolated rings of rabbit Arteria saphena, contraction induced by 3x10^-8 g/ml Phenylephrin, concentration reducing control contraction by 50 %, read-out: IC50

T1 sequence (Q62868 whole entry): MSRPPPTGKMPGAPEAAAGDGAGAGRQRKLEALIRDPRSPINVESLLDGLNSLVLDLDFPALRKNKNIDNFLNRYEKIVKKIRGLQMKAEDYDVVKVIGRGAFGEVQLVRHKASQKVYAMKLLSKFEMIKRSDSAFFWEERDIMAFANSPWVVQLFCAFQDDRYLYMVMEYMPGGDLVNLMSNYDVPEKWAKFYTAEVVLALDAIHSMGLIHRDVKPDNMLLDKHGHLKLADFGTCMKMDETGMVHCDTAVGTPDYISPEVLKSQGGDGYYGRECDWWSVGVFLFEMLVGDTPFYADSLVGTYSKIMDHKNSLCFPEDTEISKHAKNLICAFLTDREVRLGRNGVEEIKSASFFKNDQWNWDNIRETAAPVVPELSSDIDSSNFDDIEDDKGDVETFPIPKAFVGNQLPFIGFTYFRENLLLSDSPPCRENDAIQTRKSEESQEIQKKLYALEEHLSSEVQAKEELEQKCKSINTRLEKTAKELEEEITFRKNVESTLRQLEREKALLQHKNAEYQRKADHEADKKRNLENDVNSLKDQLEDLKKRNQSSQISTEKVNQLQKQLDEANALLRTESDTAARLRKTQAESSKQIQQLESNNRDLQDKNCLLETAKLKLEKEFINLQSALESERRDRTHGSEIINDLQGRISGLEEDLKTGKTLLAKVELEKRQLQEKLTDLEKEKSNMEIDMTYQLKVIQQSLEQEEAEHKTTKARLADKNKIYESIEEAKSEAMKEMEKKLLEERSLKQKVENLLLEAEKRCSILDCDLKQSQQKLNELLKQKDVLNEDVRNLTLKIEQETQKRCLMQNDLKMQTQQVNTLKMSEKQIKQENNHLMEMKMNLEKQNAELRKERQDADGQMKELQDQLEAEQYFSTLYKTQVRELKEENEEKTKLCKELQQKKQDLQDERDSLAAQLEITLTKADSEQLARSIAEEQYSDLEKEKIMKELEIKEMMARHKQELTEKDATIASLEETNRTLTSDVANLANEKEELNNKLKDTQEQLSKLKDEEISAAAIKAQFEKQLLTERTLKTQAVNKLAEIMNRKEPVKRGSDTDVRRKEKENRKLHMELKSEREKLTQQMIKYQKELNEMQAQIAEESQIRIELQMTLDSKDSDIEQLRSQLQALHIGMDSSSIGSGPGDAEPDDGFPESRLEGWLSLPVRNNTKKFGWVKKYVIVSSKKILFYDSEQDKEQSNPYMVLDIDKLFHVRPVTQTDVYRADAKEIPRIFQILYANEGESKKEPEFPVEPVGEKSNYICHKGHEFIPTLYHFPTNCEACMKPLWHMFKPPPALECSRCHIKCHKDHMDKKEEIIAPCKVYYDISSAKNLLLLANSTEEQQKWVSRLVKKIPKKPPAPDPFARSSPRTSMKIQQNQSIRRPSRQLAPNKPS

Row | SMILES | IC50 (Rho-Kinase II (ROKα)) [nM] | IC50 [1, 2] [nM] | IC50 [1] [nM]
1 | Nc1nc(Nc2ccc(Sc3ccncc3)c(F)c2)cc(-c2ccc3ncccc3c2)n1 [Beispiel 1, N-[2-Amino-6-(6-chinolinyl)-4-pyrimidinyl]-N-[3-fluor-4-(4-pyridinylsulfanyl)-phenyl]amin] | 7 | 760 | 
2 | Nc1nc(Nc2ccc(Sc3ccncc3)c(F)c2)cc(N2C[C@H]3CCCN[C@H]3C2)n1 [Beispiel 20] | 11 |  | 1700
3 | Nc1nc(Nc2cc(F)c(Sc3ccncc3)c(Cl)c2)cc(N2C[C@H]3CCCN[C@H]3C2)n1 [Beispiel 22] | 6 | 900 | 
4 | Nc1nc(Nc2ccc(Sc3ccncc3)c(F)c2)cc(Oc2cccc(Cl)c2)n1 [Beispiel 56] | 70 |  | 
5 | Nc1nc(Nc2cc(F)c(Sc3ccncc3)c(F)c2)cc(N2C[C@H]3CCCN[C@H]3C2)n1 [Beispiel 59] | 5 | 360 | 
